According to patent EP0603240B1, “SAFENING HERBICIDAL PYRAZOLYLSULFONYLUREAS” (priority 1991, dated 1993):

Tested on: corn
Assay: Example 14, Procedure II: Herbicide No. 1 + metolachlor (No. 12) with Antidote No. 17
Format: in vivo
Description: Containers were filled and compacted with a fumigated silt loam top soil to a depth of about 1.3 cm from the top of the container. A first container was designated as an untreated control, a second container was designated as a herbicide control, and a third container was designated as a herbicide + antidote test container. Each of the containers was seeded with a crop species. A measured amount of herbicide dispersed or dissolved in acetone was applied to a measured quantity of soil. To this same quantity of soil treated with herbicide, there was added a measured amount of antidote dispersed or dissolved in acetone. The quantity of soil treated with the herbicide and antidote was thoroughly mixed to incorporate the herbicide and antidote in the soil uniformly. The seed bed in the third container of soil was covered with the soil treated with the herbicide and antidote and the container was leveled. For each test series, the seed beds of the first and second containers were likewise covered by soil layers. the cover layer of the first container was not treated with herbicide or antidote.
The containers were then placed on a bench in a greenhouse and sub-irrigated as required for the duration of the test. […] Plant response is measured in terms of percent injury. Antidote efficacy is indicated as the difference in plant injury by the herbicide(s) without the antidote and with the antidote.
This procedure is the same as Procedure I, but modified in the manner that after incorporation of the chemicals (herbicide and antidote) the containers with the covered seedbed were treated with an initial overhead irrigation equivalent to 0.6 cm rainfall, then subsequently sub-irrigated as required on greenhouse benches.
In this example a plurality of dichloroacetamide antidotes were tested for their safening efficacy against a herbicidal composition comprising Herbicide No. […] The procedure used in this example was Procedure II above. […]

Q: What does the source list for `CC1COc2ccccc2N1C(=O)C(Cl)Cl` (stereo not drawn) [compound 17]?
A: % Injury Corn (Herbicide No.1 0.14 + No.12 4.48 kg/ha + Antidote No.17 0.15 kg/ha): 15%; % Injury Corn (Herbicide No.1 0.56 + No.12 4.48 kg/ha + Antidote No.17 0.15 kg/ha): 25%; % Injury Corn (Herbicide No.1 2.24 + No.12 4.48 kg/ha + Antidote No.17 0.15 kg/ha): 80%
